Test results from article PMC9882606, “Rationally designed inhibitors of the Musashi protein-RNA interaction by hotspot mimicry” (Research Square, 2023).

Legend:
MSI1 RRM1 [1] = biological target: T1, MSI1 RRM1 (Homo sapiens, UniProt O43347); experiment: Differential Scanning Fluorimetry (DSF); format: binding; settings: increasing compound dose
T1 sequence (O43347 20-110 limits assumed): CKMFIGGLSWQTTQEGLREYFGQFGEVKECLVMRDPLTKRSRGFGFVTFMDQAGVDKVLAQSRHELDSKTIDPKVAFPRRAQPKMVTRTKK
Source text: Out of concern that R12–7’s activity may be associated with compound aggregation, we elected to continue with optimization of R12–8 (Figure 2b).
To further characterize R12–8–44–3, we applied differential scanning fluorimetry (DSF) as an orthogonal secondary assay. […] While this could be a sign of apparent inhibition occurring through aggregation, there are also legitimate inhibitors that reduce their target protein’s melting temperature. An alternate explanation could simply be that MSI1’s folding landscape is not simply two-state, and that a partially-folded intermediate stabilized by R12–8–44–3 affects the unfolding transition.

MSI1 RRM1 [2] = biological target: T1, MSI1 RRM1; experiment: HSQC chemical shift mapping; format: binding; settings: MSI1 RRM1 in presence vs absence of compound
Source text: To test the hypothesis that R12–8–44–3 engages MSI1 RRM1 though specific binding interactions (rather than non-specific aggregation), we used HSQC chemical shift mapping. We collected spectra for this construct in the presence and absence of R12–8–44–3 (Figure 3a), using previously-reported assignments from a very similar construct. […] While not all peaks were assigned in our reference spectrum, we gratifyingly find that of the assigned peaks, those with the largest chemical shift differences (Phe23, Lys93) comprise exactly the expected binding site for R12–8–44–3 (Figure 3b).
Figure 3: Structural characterization of R12–8–44–3 / MSI1. (A) HSQC spectrum of MSI1 RRM1 collected in the presence (red) or absence (black) of R12–8–44–3. Assigned peaks showing the strongest chemical shift difference are labeled (Phe23, Lys93). (B) Mapping the location of these residues to our model of R12–8–44–3/MSI1 confirms that these residues comprise the intended binding site.

PC9 cells = experiment: Clonogenic assay, combination with osimertinib, PC9; format: cell-based, human; settings: PC9, 7 days, 2 nM osimertinib with 10 μM compound
Method: Figure 7: Cellular characterization of MSI2 inhibition by R12–8–44–3. (A) Quantification of mRNA immunoprecipitation (RIP) results. Cells were treated with 10 μM of the indicated compounds for 8 hours. After immunoprecipitation with anti-MSI2, mRNA targets were quantified. The amount of each target mRNA in the pulldown was calculated relative to the input, and results from all targets were normalized to PTP4A1. Treating cells with R12–8–44–3 disrupted the interaction with all four cognate mRNAs (PTP4A, SMAD3, EGFR, and MSI2). Data are presented as the average ± S.E.M. from at least 3 independent replicates. […] Cells were treated with indicated compounds at two concentrations (5 μM and 20 μM) for 48 hours, then protein levels of relevant MSI2 targets were determined (EGFR, SMAD3, and MSI2). One representative image is shown; quantification is presented as the average ± S.E.M. from at least 3 independent replicates, normalized first to beta-actin and then to DMSO-treated cells. (C) Cell viability dose-response quantified by CellTiter-Blue after 3 days (left) and cell proliferation with 10μM of compounds quantified by clonogenic assay after 7 days (right). […] (D) Cell viability quantified by clonogenic assay of PC9 cell line after 7-day treatment with 2 nM osimertinib (osi alone), osimertinib with 10 μM R12–8–44–3, or osimertinib with 10 μM R12-neg. […]

MSI2 = MSI2 (Homo sapiens, UniProt Q96DH6); experiment: mRNA immunoprecipitation (RIP) with anti-MSI2 in PC9 cells; format: cell-based; design: endogenous in cells; host or cells: PC9; settings: PC9, 10 μM, 8 hours
Source text: Among previously described targets of MSI2 are PTP4A, SMAD3, EGFR, and MSI2 itself. To test for disruption of MSI2 with these cognate mRNAs upon treatment with R12–8–44–3, we used mRNA immunoprecipitation (RIP): we used an anti-MSI2 antibody to immunoprecipitate MSI2, then reverse transcribed and analyzed by qPCR to determine the amount of each specific mRNA that was bound to MSI2. As an important control to ensure that the resulting mRNA was indeed brought down by MSI2, we additionally verified that using a negative control antibody (instead of anti-MSI2) brought with it 100-fold less of each target mRNA (Figure S10). As a separate negative control, GAPDH mRNA was also quantified in the context of these studies (since GAPDH is not thought to be a target of MSI2).
PC9 cells were then treated with 10 μM of each compound for 8 hours and then analyzed by RIP.
Figure 7: Cellular characterization of MSI2 inhibition by R12–8–44–3. (A) Quantification of mRNA immunoprecipitation (RIP) results. […] After immunoprecipitation with anti-MSI2, mRNA targets were quantified. The amount of each target mRNA in the pulldown was calculated relative to the input, and results from all targets were normalized to PTP4A1. […] Cells were treated with indicated compounds at two concentrations (5 μM and 20 μM) for 48 hours, then protein levels of relevant MSI2 targets were determined (EGFR, SMAD3, and MSI2). […]

MSI2, sequence (Q96DH6 whole entry): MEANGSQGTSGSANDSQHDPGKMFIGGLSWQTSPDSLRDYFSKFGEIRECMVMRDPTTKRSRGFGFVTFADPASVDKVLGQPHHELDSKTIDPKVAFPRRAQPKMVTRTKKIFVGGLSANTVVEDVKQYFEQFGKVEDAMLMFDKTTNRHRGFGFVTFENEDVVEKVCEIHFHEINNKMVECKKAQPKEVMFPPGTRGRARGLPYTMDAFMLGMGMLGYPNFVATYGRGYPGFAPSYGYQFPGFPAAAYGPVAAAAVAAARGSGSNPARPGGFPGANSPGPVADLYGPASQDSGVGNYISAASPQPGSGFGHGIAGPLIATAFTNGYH

Cc1cc(C(=O)OCc2nc(N)c3c(C)c(C)sc3n2)c(N)cc1F [R12–8–44–3]
change of the protein's melting temperature (MSI1 RRM1 [1]): monotonically decreased MSI1’s melting temperature | HSQC chemical shift changes on addition of compound (MSI1 RRM1 [2]): only a small number of peaks shift | clonogenic assay in combination with osimertinib (PC9 cells): robust combined effect with osimertinib | amount of target mRNA associated with MSI2 (PTP4A, SMAD3, EGFR, MSI2) (MSI2): statistically significant reduction in the amount of mRNA associated with MSI2
